Reference: patent US10100077B2, “6-aryl-9-glycosylpurines and use thereof” (UNIVERZITA PALACKEHO V OLOMOUCI, priority 2014, dated 2018)

Tested on: Arabidopsis wild-type plants (Col-0) detached leaves
Assay: Differential gene expression study (RNA sequencing) in senescent detached leaves
Procedure: Comparative gene expression analysis in Arabidopsis model was performed to gain information about the reprogramming of gene transcription when senescent leaves were treated with 6-(3-methoxybenzylamino)-9-β-D-arabinofuranosylpurine (3MeOBAPA).
For isolation of total RNA, Arabidopsis wild-type plants (Col-0) were used, which were either treated with 3MeOBAPA or left untreated. Wild-type plants were grown in soil for 30 days, and then leaves of similar size and chlorophyll content were cut and immediately used for the treatment. At least 20 detached leaves were submerged in 1×MS medium supplemented with 10 μM 3MeOBAPA. Control samples were mock treated with DMSO only. After incubation for 6 h or 48 h in the dark, detached leaves were frozen in liquid nitrogen and used for RNA isolation; 150 mg of liquid nitrogen-ground material was used per isolation. cDNA sequencing libraries were prepared with the Illumina TruSeq Stranded mRNA LT Sample Prep Kit (Illumina, San Diego, Calif.) according to standard Illumina's protocols and sequenced on HiSeq 2500 apparatus (50 bp single-end reads). […] To gain insight into the molecular mechanism of 3MeOBAPA action in Arabidopsis we decided to analyze the gene expression patterns via comparison of mock (DMSO)-treated plants with those obtained after i) short time treatment with 3MeOBAPA (6 h) and ii) long time treatment (48 h). This comparison leads to identification of group of genes with similar kinetic of expression and helps to understand possible mechanism of regulation. For data analysis, we performed ab initio method where sequencing reads were mapped to the reference genome.

COc1cccc(CNc2ncnc3c2ncn3[C@@H]2O[C@H](CO)[C@@H](O)[C@@H]2O)c1 [6-(3-methoxybenzylamino)-9-β-D-arabinofuranosylpurine]
number of genes downregulated in both groups (6 h and 48 h overlap): 724 genes
number of genes upregulated in both groups (6 h and 48 h overlap): 1102 genes
logFC AT1G02790 Polygalacturonase 4 (PGA4) (48 h, 10 μM): 8.59
logFC AT1G05580 Cation/H(+) exchanger 23 (CHX23) (48 h, 10 μM): 5.46
logFC AT1G10585 Basic helix-loop-helix (bHLH) DNA-binding superfamily protein (48 h, 10 μM): 4.85
logFC AT1G15540 2-oxoglutarate and Fe(II)-dependent oxygenase superfamily protein (48 h, 10 μM): 5.63
logFC AT1G19670 Chlorophyllase-1 (CLH1) (48 h, 10 μM): 6.42
logFC AT1G55560 SKU5 similar 14 (SKS14) (48 h, 10 μM): 8.75
logFC AT1G59860 17.6 kDa class I heat shock protein 1 (HSP17.6A) (48 h, 10 μM): 5.47
logFC AT1G59950 NAD(P)-linked oxidoreductase superfamily protein (48 h, 10 μM): 5.72
logFC AT1G75830 Defensin-like protein 1.1 (PDF1.1) (48 h, 10 μM): 7.85
logFC AT1G76640 Calcium-binding EF-hand family protein (CML39) (48 h, 10 μM): 7.06
logFC AT2G02010 Glutamate decarboxylase 4 (GAD4) (48 h, 10 μM): 5.09
logFC AT2G04460 Transposable element gene (48 h, 10 μM): 5.43
logFC AT2G18150 Peroxidase 15 (PER15) (48 h, 10 μM): 7.22
logFC AT2G21900 WRKY transcription factor 59 (WRKY59) (48 h, 10 μM): 5.81
logFC AT2G26010 Defensin-like protein 1.3 (PDF1.3) (48 h, 10 μM): 8.23
logFC AT2G26020 Defensin-like protein 1.2B (PDF1.2B) (48 h, 10 μM): 6.04
logFC AT2G26695 Ran BP2/NZF zinc finger-like superfamily protein (48 h, 10 μM): 5.90
logFC AT2G28210 Alpha carbonic anhydrase 2 (ATACA2) (48 h, 10 μM): 5.86
logFC AT2G37430 Zinc finger protein ZAT11 (48 h, 10 μM): 4.96
logFC AT2G39030 L-ornithine N5-acetyltransferase (NATA1) (48 h, 10 μM): 5.48
logFC AT2G47040 Pectin methylesterase Vanguard1 (VGD1) (48 h, 10 μM): 5.89
logFC AT2G47050 Plant invertase/pectin methylesterase inhibitor superfamily protein (48 h, 10 μM): 5.82
logFC AT3G05610 Pectinesterase/pectinesterase inhibitor 21 (PME21) (48 h, 10 μM): 5.58
logFC AT3G07820 Pectin lyase-like superfamily protein (48 h, 10 μM): 6.45
logFC AT3G09340 Transmembrane amino acid transporter family protein (48 h, 10 μM): 8.54
logFC AT3G11340 UDP-Glycosyltransferase superfamily protein (48 h, 10 μM): 6.60
logFC AT3G13400 SKU5 similar 13 (SKS13) (48 h, 10 μM): 5.57
logFC AT3G28153 Transposable element gene (48 h, 10 μM): 5.70
logFC AT3G28155 ARM repeat superfamily protein (48 h, 10 μM): 6.06
logFC AT3G44830 Putative phospholipid: diacylglycerol acyltransferase 2 (PDAT2) (48 h, 10 μM): 4.91
logFC AT3G62710 Glycosyl hydrolase family protein (48 h, 10 μM): 5.26
logFC AT4G01390 TRAF-like family protein (48 h, 10 μM): 6.24
logFC AT4G21830 Peptide methionine sulfoxide reductase B7 (MSRB7) (48 h, 10 μM): 5.95
logFC AT4G22030 F-box domain, cyclin-like, F-box domain, Skp2-like protein (48 h, 10 μM): 5.02
logFC AT4G22620 SAUR-like auxin-responsive family protein (48 h, 10 μM): 5.05
logFC AT4G24350 Phosphorylase superfamily protein (48 h, 10 μM): 6.45
logFC AT4G26010 Peroxidase 44 (PER44) (48 h, 10 μM): 7.92
logFC AT4G31950 Cytochrome P450 82C3 (CYP82C3) (48 h, 10 μM): 5.29
logFC AT4G35010 Beta-galactosidase 11 (BGAL11) (48 h, 10 μM): 5.33
logFC AT4G37780 Myb domain protein 87 (MYB87) (48 h, 10 μM): 6.88
logFC AT4G39320 Microtubule-associated protein-related (48 h, 10 μM): 5.09
logFC AT5G03610 GDSL esterase/lipase (48 h, 10 μM): 4.61
logFC AT5G12960 Putative glycosyl hydrolase (48 h, 10 μM): 5.26
logFC AT5G44420 Defensin-like protein 1.2A (PDF1.2A) (48 h, 10 μM): 8.15
logFC AT5G44430 Defensin-like protein 1.2C (PDF1.2C) (48 h, 10 μM): 8.87
logFC AT5G45880 Pollen Ole e 1 allergen and extensin family protein (48 h, 10 μM): 5.52
logFC AT5G52670 Copper transport family protein (48 h, 10 μM): 6.03
logFC AT5G61160 Agmatine coumaroyltransferase (ACT) (48 h, 10 μM): 5.05
logFC AT5G62720 Integral membrane HPP family protein (48 h, 10 μM): 5.31
logFC AT5G63270 RPM1-interacting protein 4 (RIN4) family protein (48 h, 10 μM): 7.11
number of downregulated genes (P≤0.05) (48 h, 10 μM, vs mock): 7095 genes
number of upregulated genes (P≤0.05) (48 h, 10 μM, vs mock): 7509 genes
